Measurements taken from US20250000879A1, “PHARMACEUTICAL COMPOSITION FOR PREVENTING DIABETES AND USE THEREOF” (HANYI BIO-TECHNOLOGY (BEIJING) CO., LTD., priority 2018, published 2025).

Tests used:
[1] = test system: DB/DB mice (spontaneous type 2 diabetic mice); test: Blood glucose of DB/DB mice after administration treatment; type: in vivo; conditions: CBD alone 50 mg/kg, intragastric, once a day
Description: In order to study the effect of combined use of CBD and metformin, adult DB/DB mice (spontaneous type 2 diabetic mice, purchased from Model Animal Center of Nanjing University) were randomly divided into 5 groups, with 6 mice in each group: • Group 1: control group, no treatment; • Group 2: CBD alone administration group (50 mg/kg); • Group 3: low-dose metformin group (100 mg/kg, calculated by referring to the lowest dose for human, and the dose for mice=9.1×the dose for human); • Group 4: low-dose metformin (100 mg/kg)+CBD (50 mg/kg) group; and • Group 5: high-dose metformin group (250 mg/kg, calculated by referring to the lowest dose for human, and the dose for mice=9.1×the dose for human).
Group 3 and Group 5 were both positive control groups of the treatment group, Group 3 was low-dose metformin group, and Group 5 was high-dose metformin group.
The administration routes of the above five groups were all intragastric administration, once a day
After 4 weeks of administration, blood glucose of mice in each group was measured.

[2] = test system: mouse lactic acidosis model; test: Blood lactic acid concentration in mouse lactic acidosis model induced by metformin; type: in vivo, mice; conditions: FIG. 5
Description: ICR male mice aged 4-6 weeks were used as experimental animals. The mice were administrated by gavage with metformin (260 mg/kg) for induction for three times, with an interval of 12 hours.
The mice were randomly divided into seven groups with five mice in each group: • Group 1: control group, no treatment; • Group 2: given water by gavage every day; • Group 3: given CBD by gavage once a day, 50 mg/kg; • Group 4: given 260 mg/kg of metformin by gavage in the morning and evening on the first day, and 260 mg/kg of metformin by gavage in the next morning, and sampled at […] in the next day; • Group 5: given 260 mg/kg of metformin by gavage in the morning and evening on the first day, and 260 mg/kg of metformin by gavage in the next morning, given 50 mg/kg of CBD at the same time metformin was given by gavage, and sampled at […] in the next day. • Group 6: injected with 260 mg/kg of metformin by caudal vein every other one hour for four times, and sampled one hour after the fourth injection; and • Group 7: given 50 mg/kg of CBD by gavage half an hour before caudal vein injection, injected with 260 mg/kg of metformin by caudal vein half an hour later, once every other hour, four times in total, and sampled one hour after the fourth injection. […]

[3] = test system: mouse model of type 1 diabetes; test: Fasting blood glucose in STZ-induced mouse model of type 1 diabetes; type: in vivo, mice; conditions: FIG. 1A; for fasting blood glucose: after 10 days
Description: (§1) C57 male mice aged 4-6 weeks were used as experimental animals. After the mice were fasted for 10-12 hours, they were injected with 50 mg/kg of streptozotocin (STZ) intraperitoneally for 5 consecutive days. Fasting blood glucose levels of mice on the 6th and 10th days were measured to determine whether the induction was successful (the induction was considered successful when fasting blood glucose was greater than 11.1 mmol/L). The mice were applied to Group 2 to 6 in the following step 2).
The mice were randomly divided into 6 groups with 10 mice in each group: • Group 1: blank control group, fed with normal feed and intraperitoneally injected with a buffer solution at a dose of 100 μl/mouse, once a day for 5 consecutive days; • wherein, the buffer solution was a citric acid buffer solution with a concentration of 0.1 mol/L and pH of 4.2 and was sterilized by suction filtration. • Group 2: diabetes model group, fed with normal feed and intraperitoneally injected with streptozotocin; • Group 3: CBD prevention group, fed with normal feed, intraperitoneally injected with streptozotocin, and given CBD by gavage from the first day of induction, 50 mg/kg, once a day; • Group 4: CBD treatment group, fed with normal feed, intraperitoneally injected with streptozotocin, and given CBD by gavage after successful induction, 50 mg/kg, once a day; • Group 5: positive drug control group, fed with normal feed, intraperitoneally injected with streptozotocin, and injected with insulin after successful induction, 0.2 U/kg, once a day; and • Group 6: metformin group, fed with normal feed, intraperitoneally injected with streptozotocin, and given metformin by gavage after successful induction, 50 mg/kg, once a day.
(§2) Fasting blood glucose of mice in each group was detected every other three to four weeks; after one month of administration (the model was stable), a glucose tolerance test (GTT) was carried out. […] The blood glucose of the mice before injection (0 min) and at 15 min, 30 min, 60 min and 120 min after injection were measured respectively.

[4] = test system: mouse model of chronic renal failure induced by adriamycin; test: Urinary total protein in mice with chronic renal failure induced by adriamycin; type: in vivo; conditions: CBD 50 mg/kg by gavage once a day; urine on the 14th day of nephropathy induction; FIG. 7
Description: A mouse model of chronic renal failure induced by adriamycin was constructed according to a conventional method of inducing kidney injury. After CBD treatment for 14 days, urinary total protein level was measured. The specific method is as follows: Kunming white male mice aged 4-6 weeks were used as experimental animals. After the mice were fasted for 10-12 hours, they were injected with 50 mg/kg of streptozotocin (STZ) intraperitoneally for 5 consecutive days. […] On the 7th day after diabetes induction, the mice in the nephropathy group were injected with adriamycin at 10 mg/kg by caudal vein. The mice were applied to the Group 3 to 6 in the following step 2). The experimental animals were randomly divided into 6 groups with 10 animals in each group: • Group 1: control group, fed with normal saline; • Group 2: diabetes group; • Group 3: diabetes+CBD group; given CBD by gavage, 50 mg/kg, once a day; • Group 4: diabetes+adriamycin group; • Group 5: diabetes+adriamycin+CBD group; given CBD by gavage, 50 mg/kg, once a day; and • Group 6: diabetes+adriamycin+metformin group; given metformin by gavage, 50 mg/kg, once a day. After successfully inducing the mouse diabetes model, the mice were injected with adriamycin through caudal vein to induce nephropathy model. Urine was collected from the mice on the 14th day of the induction of nephropathy model, and urinary total protein was detected.

[5] = test system: mouse model of type 1 diabetes; test: Glucose tolerance test (GTT) in STZ-induced mouse model of type 1 diabetes; type: in vivo, mice; conditions: FIG. 1B
Description: as §1, with “2). […]” for “2).”
as §2

[6] = test system: mouse model of type 1 diabetes; test: Insulin tolerance test (ITT) in STZ-induced mouse model of type 1 diabetes; type: in vivo, mice; conditions: FIG. 1C
Description: as §1, with “2). […]” for “2).”
One week after GTT, an insulin tolerance test (ITT) was carried out. […] The blood glucose of the mice before injection (0 min) and at 15 min, 30 min, 60 min and 120 min after injection were measured respectively.

[7] = test system: patients with type 2 diabetes; test: Fasting blood glucose and glycosylated hemoglobin in diabetic volunteers; type: in vivo, human; conditions: oral CBD 300 mg/day, after 8 weeks, three patients
Description: Every patient received oral CBD treatment at 300 mg/day for 8 weeks. Fasting blood glucose was measured at the 0th, 4th and 8th weeks. Glycosylated hemoglobin value was measured at the 0th and 8th weeks. The results are shown in FIG. 8A and FIG. 8B, respectively.

[8] = test system: mouse model of type 2 diabetes; test: Insulin tolerance test (ITT) in STZ and high-fat feed mouse model of type 2 diabetes; type: in vivo, mice; conditions: CBD 50 mg/kg by gavage once a day; one month after administration; FIG. 2C
Description: (§3) C57 male mice aged 4-6 weeks were used as experimental animals. The mice were fed with high-fat feed. After the mice were fasted for 10-12 hours, they were injected with 50 mg/kg of streptozotocin (STZ) intraperitoneally for 5 consecutive days. […] The mice were applied to Group 2 to 8 in the following step 2).
(§4) High-fat feed was formed by adding 60% fat to normal feed.

[9] = test system: mouse model of type 2 diabetes; test: Fasting blood glucose in STZ and high-fat feed mouse model of type 2 diabetes; type: in vivo, mice
Description: as §3, §4

[10] = test system: mouse model of type 2 diabetes; test: Glucose tolerance test (GTT) in STZ and high-fat feed mouse model of type 2 diabetes; type: in vivo, mice; conditions: CBD 50 mg/kg by gavage once a day; one month after administration; FIG. 2B
Description: C57 male mice aged 4-6 weeks were used as experimental animals. The mice were fed with high-fat feed. After the mice were fasted for 10-12 hours, they were injected with 50 mg/kg of streptozotocin (STZ) intraperitoneally for 5 consecutive days. […] The mice were applied to Group 2 to 8 in the following step 2). High-fat feed was formed by adding 60% fat to normal feed. […] One month after administration (after the type 2 diabetes model was stabilized,), a glucose tolerance test (GTT) was carried out. The mice were fasted for 10 hours, and injected with 20% (w/w) glucose was intraperitoneally according to their body weights (10 μl/g).

mouse diarrhea model = test: Diarrhea index in mouse diarrhea model induced by Folium Sennae; type: in vivo, mice; conditions: days 1-7, FIG. 4A to 4G
Description: ICR female mice of 4-6 weeks old were used as experimental animals. The mice ate and drank normally, and were given 8% (w/w) Folium Sennae solution by gavage, 0.2 ml/mouse. Diarrhea index of the mice was counted every other one and a half hours for 6 hours. Folium Sennae was purchased from Tongrentang Pharmacy in Beijing. The 8% (w/w) Folium Sennae solution was prepared by boiling 8 parts by weight of Folium Sennae and 92 parts by weight of water in a conical flask for 10 min.
The mice were randomly divided into 7 groups with 10 mice in each group: • Group 1: the mice were given the same volume of water by gavage every day; • Group 2: the mice were given 150 mg/kg of metformin by gavage every day; • Group 3: the mice were given 50 mg/kg of CBD by gavage every day; • Group 4: the mice were given 8% Folium Sennae solution by gavage every day; • Group 5: the mice were given a mixed solution of 8% Folium Sennae solution and 150 mg/kg of metformin by gavage every day; • Group 6: the mice were given a mixed solution of 8% Folium Sennae solution and 50 mg/kg of CBD by gavage every day; and • Group 7: the mice were given a mixed solution of 8% Folium Sennae solution, 150 mg/kg of metformin and 50 mg/kg of CBD by gavage every day.
Every day after gavage, the diarrhea index of each mouse was counted every other one and a half hours, 4 times in total […].
Diarrhea index=loose stool rate*loose stool grade
• Diarrhea rate: the number of animals with loose stools in this group/the total number of animals in this group*100%; • Loose stool rate: the number of loose stools per animal/the total number of stools; and • Loose stool grade: the hardness of loose stool graded according to the size of stains on filter paper with loose stool, as shown in Table 1 below.

[11] = test system: diabetes model mice fed with high-fat feed; test: Serum lipid and insulin levels in mice induced by STZ and high-fat feed; type: in vivo; conditions: metformin alone, 100 or 250 mg/kg by gavage once a day; two months of treatment; FIG. 6E
Description: After the mice were fasted for 10-12 hours, they were injected with 50 mg/kg of streptozotocin (STZ) intraperitoneally for 5 consecutive days.

C=C(C)[C@@H]1CCC(C)=C[C@H]1c1c(O)cc(CCCCC)cc1O [CBD, Cannabidiol]
blood glucose [1]: reduce blood glucose | lactic acid concentration in blood ([2]; CBD 50 mg/kg by gavage with metformin 260 mg/kg (gavage or caudal vein)): significantly inhibit the increase of lactic acid in blood induced by metformin | fasting blood glucose, CBD prevention group compared with CBD treatment group ([3]; 50 mg/kg by gavage once a day): the CBD prevention group had a better effect than the CBD treatment group | fasting blood glucose ([3]; CBD prevention group: 50 mg/kg by gavage once a day from the first day of STZ induction): significantly reduce the blood glucose increase caused by STZ | fasting blood glucose ([3]; CBD treatment group: 50 mg/kg by gavage once a day after successful induction): significantly reduce the blood glucose increase caused by STZ | urinary total protein level [4]: significantly reduce urinary total protein level | GTT, CBD prevention group compared with CBD treatment group ([5]; 50 mg/kg by gavage once a day): the CBD prevention group had a better effect than the CBD treatment group | glucose tolerance test (GTT), regulation of glucose ([5]; CBD 50 mg/kg by gavage once a day, after one month of administration): significantly enhance regulation of glucose in the mice | ITT, CBD prevention group compared with CBD treatment group ([6]; 50 mg/kg by gavage once a day): the CBD prevention group had a better effect than the CBD treatment group | insulin tolerance test (ITT), sensitivity to insulin ([6]; CBD 50 mg/kg by gavage once a day, one week after GTT): significantly enhance sensitivity of the mice to insulin | fasting blood glucose ([7]; FIG. 8A): decreased significantly | glycosylated hemoglobin ([7]; FIG. 8B): improved significantly | insulin tolerance test (ITT), sensitivity to insulin [8]: improve sensitivity of the mice to insulin | CBD prevention group compared with CBD treatment group (fasting blood glucose, GTT, ITT) ([9]; 50 mg/kg by gavage once a day, FIG. 2A to FIG. 2C): the CBD prevention group had a better effect than the CBD treatment group | fasting blood glucose ([9]; CBD 50 mg/kg by gavage once a day, FIG. 2A): significantly reduce the blood glucose elevation induced by STZ and high-fat feed | glucose tolerance test (GTT), regulation of glucose [10]: improve regulation of glucose in the mice induced by STZ and high-fat feed | diarrhea index, diarrhea induced and aggravated by metformin (mouse diarrhea model; CBD 50 mg/kg with 8% Folium Sennae solution and 150 mg/kg metformin by gavage every day): significantly alleviate | diarrhea index, diarrhea induced by Folium Sennae (mouse diarrhea model; CBD 50 mg/kg with 8% Folium Sennae solution by gavage every day): significantly alleviate

CN(C)C(=N)N=C(N)N [metformin, Metformin, reference compound]
lactic acid concentration in blood ([2]; metformin 260 mg/kg, by gavage three times or by caudal vein four times): induce lactic acidemia | insulin level in serum (insulin secretion) [11]: could not increase insulin secretion | diarrhea index (mouse diarrhea model; metformin 150 mg/kg with 8% Folium Sennae solution by gavage every day): aggravate diarrhea induced by Folium Sennae
